Source: ChEMBL document CHEMBL1201862, “PubChem BioAssay data set” (2004)
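Protocol summary: plate cells (96-well), add compound at 5 concentrations, incubate 48 h, interpolate endpoints linearly. The concentration for 50% growth inhibition is given as GI50.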 Activity calls are given as the source filed them. Rule as the data show it: active = GI50 up to about 1.1 µM and inactive = higher.

Tests used:
Experiment in all cases: NCI tumour cell line growth inhibition, 48 h
LXFL 529 = tested on: LXFL 529
RPMI-8226 = tested on: RPMI-8226
SK-MEL-28 = tested on: SK-MEL-28
MOLT-4 = tested on: MOLT-4
ACHN = tested on: ACHN
IGROV-1 = tested on: IGROV-1
NCI-H23 = tested on: NCI-H23
XF498 = tested on: XF498
EKVX = tested on: EKVX
SNB-75 = tested on: SNB-75
KM12 = tested on: KM12
HCT-15 = tested on: HCT-15
HOP-62 = tested on: HOP-62
COLO 205 = tested on: COLO 205
U-251 = tested on: U-251
HOP-18 = tested on: HOP-18
OVCAR-3 = tested on: OVCAR-3
NCI-H460 = tested on: NCI-H460
HT-29 = tested on: HT-29
HOP-92 = tested on: HOP-92
SF-539 = tested on: SF-539
HL-60 = tested on: HL-60
OVCAR-5 = tested on: OVCAR-5
UACC-257 = tested on: UACC-257
RXF 393 = tested on: RXF 393
K562 = tested on: K562
OVCAR-4 = tested on: OVCAR-4
SNB-78 = tested on: SNB-78
SK-MEL-5 = tested on: SK-MEL-5
SK-OV-3 = tested on: SK-OV-3
786-0 = tested on: 786-0
A549 = tested on: A549
CCRF-CEM = tested on: CCRF-CEM
NCI-H226 = tested on: NCI-H226
A498 = tested on: A498
TK-10 = tested on: TK-10
HCT-116 = tested on: HCT-116
OVCAR-8 = tested on: OVCAR-8
CAKI-1 = tested on: CAKI-1
SW-620 = tested on: SW-620
UO-31 = tested on: UO-31
KM-20L2 = tested on: KM-20L2
SK-MEL-2 = tested on: SK-MEL-2
Malme-3M = tested on: Malme-3M
NCI-H522 = tested on: NCI-H522
SF-268 = tested on: SF-268
DMS-273 = tested on: DMS-273
DMS-114 = tested on: DMS-114
SF-295 = tested on: SF-295
M14 = tested on: M14
UACC-62 = tested on: UACC-62
SN12C = tested on: SN12C
LOX IMVI = tested on: LOX IMVI
SNB-19 = tested on: SNB-19

C[C@]12Cc3cn[nH]c3C(=O)C1CC[C@@H]1C2CC[C@@]2(C)C1CC[C@@H]2O (some centres undefined)
GI50 (LXFL 529): > 100 µM (inactive)
GI50 (RPMI-8226): > 100 µM (inactive)
GI50 (SK-MEL-28): > 100 µM (inactive)
GI50 (MOLT-4): > 100 µM (inactive)
GI50 (ACHN): > 100 µM (inactive)
GI50 (IGROV-1): > 100 µM (inactive)
GI50 (NCI-H23): > 100 µM (inactive)
GI50 (XF498): > 100 µM (inactive)
GI50 (EKVX): > 100 µM (inactive)
GI50 (SNB-75): > 100 µM (inactive)
GI50 (KM12): > 100 µM (inactive)
GI50 (HCT-15): > 100 µM
GI50 (HOP-62): > 100 µM (inactive)
GI50 (COLO 205): > 100 µM (inactive)
GI50 (U-251): > 100 µM (inactive)
GI50 (HOP-18): > 100 µM (inactive)
GI50 (OVCAR-3): > 100 µM (inactive)
GI50 (NCI-H460): > 100 µM (inactive)
GI50 (HT-29): > 100 µM (inactive)
GI50 (HOP-92): > 100 µM (inactive)
GI50 (SF-539): > 100 µM (inactive)
GI50 (HL-60): > 100 µM (inactive)
GI50 (OVCAR-5): > 100 µM (inactive)
GI50 (UACC-257): > 100 µM (inactive)
GI50 (RXF 393): > 100 µM (inactive)
GI50 (K562): > 100 µM (inactive)
GI50 (OVCAR-4): > 100 µM (inactive)
GI50 (SNB-78): > 100 µM (inactive)
GI50 (SK-MEL-5): > 100 µM (inactive)
GI50 (SK-OV-3): > 100 µM (inactive)
GI50 (786-0): > 100 µM (inactive)
GI50 (A549): > 100 µM (inactive)
GI50 (CCRF-CEM): > 100 µM (inactive)
GI50 (NCI-H226): > 100 µM (inactive)
GI50 (A498): > 100 µM (inactive)
GI50 (TK-10): > 100 µM (inactive)
GI50 (HCT-116): > 100 µM (inactive)
GI50 (OVCAR-8): > 100 µM (inactive)
GI50 (CAKI-1): > 100 µM (inactive)
GI50 (SW-620): > 100 µM (inactive)
GI50 (UO-31): > 100 µM (inactive)
GI50 (KM-20L2): > 100 µM (inactive)
GI50 (SK-MEL-2): 1.23 µM (inactive)
GI50 (Malme-3M): > 100 µM (inactive)
GI50 (NCI-H522): > 100 µM (inactive)
GI50 (SF-268): > 100 µM (inactive)
GI50 (DMS-273): > 100 µM (inactive)
GI50 (DMS-114): > 100 µM (inactive)
GI50 (SF-295): > 100 µM (inactive)
GI50 (M14): > 100 µM (inactive)
GI50 (UACC-62): > 100 µM (inactive)
GI50 (SN12C): > 100 µM (inactive)
GI50 (LOX IMVI): > 100 µM (inactive)
GI50 (SNB-19): > 100 µM (inactive)
